Activity calls are given as the source filed them.
Key:
Type in all cases: functional, cell-based
[1] = test system: MCF7; assay: Cytotoxicity against human MCF7 cells assessed as reduction in cell viability at 10 uM by MTT assay
[2] = test system: HeLa; assay: Cytotoxicity against human HeLa cells assessed as reduction in cell viability at 10 uM by MTT assay
[3] = test system: A549; assay: Cytotoxicity against human A549 cells assessed as reduction in cell viability at 10 uM by MTT assay
[4] = test system: HepG2; assay: Cytotoxicity against human HepG2 cells assessed as reduction in cell viability at 10 uM by MTT assay

Measured: Activity

CC(C)=CCc1c(O)ccc([C@@H]2COc3c(ccc(O)c3CC=C(C)C)C2)c1O
inactive: all assays above

CC(C)=CCc1cc2c(cc1O)OC[C@H](c1ccc(O)cc1O)[C@@H]2c1cc([C@H]2COc3c(ccc(O)c3CC=C(C)C)C2)c(O)cc1O
inactive: all assays above

COc1ccc([C@@H]2COc3c(ccc(O)c3CC=C(C)C)C2=O)c(O)c1
inactive: all assays above

CC(C)=CCc1c(O)cc(O)cc1/C=C/c1ccc(O)cc1
inactive: all assays above

CC(C)=CCc1cc([C@H]2Oc3cc(O)cc(O)c3C(=O)[C@@H]2O)ccc1O
inactive: all assays above

COc1ccc([C@H]2COc3c(ccc(O)c3CC=C(C)C)C2)c(O)c1
inactive: all assays above

CC(C)=CCc1cc([C@@H]2CC(=O)c3ccc(O)cc3O2)ccc1O
inactive: all assays above

O=C(O)/C=C1/c2ccc(O)cc2O[C@@H]1Cc1ccc(O)cc1
inactive: all assays above

CC(C)=CCc1c(O)ccc2c1OC[C@H](c1ccc(O)cc1O)C2
inactive: all assays above

CC(C)=CCc1c(O)ccc2c1OC[C@@H](c1ccc(O)cc1O)C2=O
inactive: all assays above

COc1ccc(C[C@H]2Oc3cc(O)ccc3/C2=C/C(=O)O)cc1
inactive: all assays above

CC(C)(O)CCc1c(O)ccc2c1OC[C@H](c1ccc(O)cc1O)C2
inactive: all assays above

CC(C)=CCc1cc([C@H]2Oc3cc(O)ccc3C(=O)[C@@H]2O)ccc1O
inactive: all assays above

COc1ccc(-c2coc3c(CC=C(C)C)c(O)ccc3c2=O)cc1
inactive: all assays above

CC(C)=CCc1c(O)ccc([C@@H]2COc3c(ccc(O)c3CC=C(C)C)C2=O)c1O
inactive: all assays above

CC(C)=CCc1c(O)ccc2c1OC[C@H](c1cc([C@@H]3c4ccc(O)c(CC=C(C)C)c4OC[C@@H]3c3ccc(O)cc3O)c(O)cc1O)C2
inactive: all assays above

CC1(C)CCc2c(ccc3c2OC[C@@H](c2ccc(O)cc2O)C3)O1
inactive: all assays above

COc1ccc(-c2coc3cc(O)ccc3c2=O)cc1
inactive: all assays above

CC1(C)CCc2c(ccc3c2OC[C@@H](c2ccc(O)cc2O)C3=O)O1
inactive: all assays above

CC(C)=CCc1cc2c(cc1O)OC[C@H](c1ccc(O)cc1O)[C@@H]2c1cc2c(c(CC=C(C)C)c1O)OC[C@@H](c1ccc(O)cc1O)C2
inactive: all assays above

COc1ccc(C2COc3cc4c(cc3C2)C=CC(C)(C)O4)c(O)c1 (configuration not stated)
inactive: all assays above

COc1cc(O)ccc1[C@H]1COc2cc(O)ccc2[C@H]1c1cc2c(c(CC=C(C)C)c1O)OC[C@@H](c1ccc(O)cc1O)C2
inactive: all assays above

COc1ccc([C@@H]2COc3cc(O)ccc3C2)c(O)c1
inactive: all assays above

From ChEMBL document CHEMBL6153095, “Dihydroaurones and Isoflavan Derivatives from the Roots of Glycyrrhiza asymmetrica” (J Nat Prod, 2025)
